One molecule from patent US9986723B2, “Screen and use of therapeutics for pancreatic ductal adenocarcinoma” (The Board of Regents of the University of Texas System, priority 2014, dated 2018) can be followed below.

In one assay the test system is Panc-1 cells. In words: In vitro EMT assay (TGF-β and collagen). The following applies: warfarin 2 μM. Type of assay: cell-based, human. As for the experimental part: FIGS. 26A-C. […] (FIG. 26A) the expression level of pAxl, Zeb1 and nuclear β-catenin in Panc1 cells in vitro was measured by immunofluorescence under normal culture conditions or after growth on collagen matrix and treatment with TGF-β (20 ng/ml) to induce epithelial to mesenchymal transition, with or without warfarin (2 μM). p-Axl was normalized to total Axl area. (FIG. 26B) Panc1 cells were treated with either SFM, recombinant Gas 6 (100 ng/ml) or Gas6 following pretreatment with 10C9 (mAb anti-Axl). Transition to a mesenchymal phenotype was characterized by changes in vimentin and nuclear Zeb1 expression determined by immunofluoresence. […] (FIG. 26C) Paraffin embedded sections of Panc-1 tumors were analyzed by immunofluorescence for markers of EMT.

A further assay deals with cell migration. In words: Scratch migration assay. Type of assay: cell-based. The conditions noted are these: warfarin 2 μM, 16 hrs. As for the experimental part: (FIG. 24A) HEK293 cells engineered to stably express recombinant Gas6 were grown in the presence of Vitamin K or Vitamin K+warfarin. Gas6 levels and γ-carboxylation were assayed by immunoblotting conditioned media. Conditioned media from untransfected HEK293 cells was used as a negative control. (FIG. 24B) Panc1 cells were grown overnight in media with 1% serum with no additions (NT), warfarin (2 μM) or BGB324 (2 μM). Lysates were probed for total Axl (tAxl) and phosphorylated Axl (pAxl). (FIG. 24C) Panc1 cells were grown in the presence of control media, Vitamin K, warfarin or warfarin+Vitamin K. The level of phosphorylated Axl (pAXL, red) was determined by immunofluorescence. (FIG. 24D) Panc1 cells were grown overnight in media with 1% serum with no additions (control), warfarin (1 μM), Gas6 (1.3 nM) or Gas6+warfarin. Lysates were probed for phosphorylated Akt (pAkt) and actin. (FIG. 24E) Lysates from Panc1 tumors harvested from mice treated with control or warfarin were probed for expression of tAxl, pAxl, actin, pAKT, tAKT, and cleaved Parp. (FIG. 24F) The effect of warfarin on cell migration was assessed by a ‘scratch’ assay. Monolayers of the indicted cells were wounded with a pipet tip. The cells were incubated in media containing 2% serum+/−warfarin (2 μM) or media containing 2% serum+Gas6 (1.3 nM)+/−warfarin.

In a further assay the test system is C5LM2 cells. Nature of the assay: Liver metastases after intrasplenic tumor cell injection. Type of assay: in vivo, mouse. The following applies: warfarin 1 mg/L, pre or post (48 hrs) tumor cell injection. As for the experimental part:
FIGS. 25A-I. Axl inhibition reduces colony formation and enhances chemotherapy. (FIGS. 25A-C) parental Mia PaCa-2 cells or Mia PaCa-2 cells stably transfected with shRNA targeting Axl (Mia shAxl) were grown as spheroids in matrigel for 7 days in the presence or absence of warfarin (200 ng/ml), n=4/condition. Mia PaCa-2 cell colonies form large stellate colonies characteristic of invasive tumor growth. Colonies and cognate cell projections were imaged (FIG. 25A) with a Nikon Phase contrast microscope using 40× and 200× magnification. Mean total colony number (FIG. 25B) and total colony area+/−s.d. (FIG. 25C) reflective of invasive growth were calculated using Image J image analysis. […] (FIG. 25E) liver metastases were quantified after intrasplenic injection of C5LM2 cells. […] Mice were sacrificed when control treated animals were moribund and primary and metastatic burden was determined. […]
Animal studies. […] Mice with established tumors, as determined by sonography were randomized to receive normal drinking water or water containing 1 mg/L (˜3.0 μM) warfarin for experiments in immunocompromised mice and 0.5 mg/L (˜1.5 μM) in experiments in immunocompetent animals with or without gemcitabine 25 mg/kg twice weekly depending on experimental design. […] Metastatic incidence was determined by visual inspection of the liver and abdominal cavity and confirmed by H&E of liver sections. […]

Consider `CC(=O)CC(c1ccccc1)c1c(O)c2ccccc2oc1=O` (racemic) [Warfarin], for which the “Zeb1 and nuclear β-catenin levels” value with Panc-1 cells (TGF-β 20 ng/ml, collagen) is recorded as “significantly reduced”. The “TGFβ and collagen I enhanced Axl expression and activation” value with Panc-1 cells was “blocked”. For the same molecule, the “basal and Gas6-induced cell migration (% wound closure)” value with cell migration was “reduced”. In addition, in the assay with C5LM2 cells, the “liver colonization after intrasplenic injection” value is “inhibited liver colonization”.
